Measured values from patent publication US20250002463A1, “NEW SALT FORMS OF AMILORIDE AND ITS DERIVATIVES FOR PHARMACEUTICAL USE” (PSOMRI Holding AB, priority 2021, published 2025).
One block for each molecule: values may come before it.

Assays:
[1] = Crystallinity of salt forms by HT-XRPD; assay type: physicochemical; conditions: salt screen solid forms
Description: The precipitated solids were analyzed by high throughput X-ray powder diffractometry (HT XRPD). Liquid phases (both solutions and mother liquors) were evaporated at ambient conditions and the residual solids were analyzed by HT XRPD.
XRPD patterns were obtained using the Ardena T2 high-throughput XRPD set-up. The plates were mounted on a Bruker General Area Detector Diffraction System (GADDS) equipped with a VÅNTEC-500 gas area detector corrected for intensity and geometric variations. The calibration of the measurement accuracy (peaks position) was performed using NIST SRM1976 standard (Corundum).
No background subtraction or curve smoothing was applied to the XRPD patterns.

[2] = Physical stability under Accelerated Aging Conditions (AAC, 40° C./75% RH, 2 days), HT-XRPD; conditions: for Physical Stability: AAC 40° C./75% RH, 2 days, re-analyzed by HT-XRPD; for physical stability upon exposure to AAC: Example 2; for physical stability upon exposure to AAC / Physically stable after AAC: 40° C./75% RH for 2 days; for Physically stable after AAC: Example 1
Description: The solids were separated from the liquid phases by centrifugation, dried overnight under vacuum at 50° C. and analyzed by HT-XRPD. Solvents from the remaining mother liquors and solutions were evaporated under ambient conditions (evaporative crystallization experiments) and the residual solids were analyzed by HT-XRPD.
Slurries of the amorphous solids (GEN9 and GEN16, respectively) were prepared in 15 solvents at room temperature. The suspensions were subjected to a temperature profile, which comprised of three heating and cooling cycles. At the end of the temperature profile, the solids were isolated by centrifugation and dried at ambient conditions and under vacuum at 50° C. Upon completion of all crystallization experiments, all solids were analyzed by HT-XRPD.

Molecule: N=C(NCc1ccccc1)NC(=O)c1nc(Cl)c(N)nc1N.O=C(O)C=CC(=O)O [FUM2]
Crystallinity [1]: Good | Physical Stability [2]: Stable | physical stability upon exposure to AAC [2]: physically stable

Molecule: NC(=NC(=O)c1nc(Cl)c(N)nc1N)NCc1ccccc1.O=C(O)CNC(=O)c1ccccc1 [HIP2]
Crystallinity [1]: Poor

Molecule: NC(=NC(=O)c1nc(Cl)c(N)nc1N)NCc1ccccc1.O=S(=O)(O)c1ccccc1 [BES1]
Crystallinity [1]: Good | Physical Stability [2]: Unstable

Molecule: N=C(NCc1ccccc1)NC(=O)c1nc(Cl)c(N)nc1N.O=CO [FOR1]
Crystallinity [1]: Good

Molecule: NC(=NC(=O)c1nc(Cl)c(N)nc1N)NCc1ccccc1.O=S(=O)(O)CCS(=O)(=O)O [EDY3]
Crystallinity [1]: Good | Physical Stability [2]: Stable | physical stability upon exposure to AAC [2]: physically stable

Molecule: Br.N=C(NCc1ccccc1)NC(=O)c1nc(Cl)c(N)nc1N [HBR8]
Crystallinity [1]: Good

Molecule: NC(=NC(=O)c1nc(Cl)c(N)nc1N)NCc1ccccc1.O=C(O)c1ccco1 [FUR1]
Crystallinity [1]: Good | Physical Stability [2]: Stable | physical stability upon exposure to AAC [2]: physically stable

Molecule: NC(=NC(=O)c1nc(Cl)c(N)nc1N)NCc1ccccc1.O=C(O)CCCCC(=O)O [ADI1]
Crystallinity [1]: Good | Physical Stability [2]: Unstable

Physically stable after AAC [2]: physically unstable
Molecule: NC(=NCc1ccccc1)NC(=O)c1nc(Cl)c(N)nc1N.O=[N+]([O-])O [NIT2]

Molecule: Br.N=C(NCc1ccccc1)NC(=O)c1nc(Cl)c(N)nc1N [HBR7]
Crystallinity [1]: Good

Molecule: N=C(NCc1ccccc1)NC(=O)c1nc(Cl)c(N)nc1N.O=C(O)c1cc(O)ccc1O [GEN2]
Crystallinity [1]: Moderate | Physical Stability [2]: Stable | physical stability upon exposure to AAC [2]: physically stable

Molecule: CCC(=O)O.NC(=NC(=O)c1nc(Cl)c(N)nc1N)NCc1ccccc1 [PRO1]
Crystallinity [1]: Good | Physical Stability [2]: Unstable

Molecule: CCCCC(=O)O.NC(=NC(=O)c1nc(Cl)c(N)nc1N)NCc1ccccc1 [VAL1]
Crystallinity [1]: Good | Physical Stability [2]: Stable | physical stability upon exposure to AAC [2]: physically stable

Molecule: CCS(=O)(=O)O.NC(=NC(=O)c1nc(Cl)c(N)nc1N)NCc1ccccc1 [ESY1]
Crystallinity [1]: Good | Physical Stability [2]: Stable | physical stability upon exposure to AAC [2]: physically stable

Molecule: NC(=NC(=O)c1nc(Cl)c(N)nc1N)NCc1ccccc1.O=C(O)c1cc2ccccc2c(Cc2c(O)c(C(=O)O)cc3ccccc23)c1O [PAM1]
Crystallinity [1]: Obtained as mixture | Physical Stability [2]: Stable | physical stability upon exposure to AAC [2]: physically stable

Molecule: NC(=NC(=O)c1nc(Cl)c(N)nc1N)NCc1ccccc1.O=C(O)C=CC(=O)O [MAE2]
Crystallinity [1]: Good | Physical Stability [2]: Stable | physical stability upon exposure to AAC [2]: physically stable

Molecule: N=C(NCc1ccccc1)NC(=O)c1nc(Cl)c(N)nc1N.O=C(O)c1cc(=O)[nH]c(=O)[nH]1 [ORO1]
Crystallinity [1]: Good | Physical Stability [2]: Stable | physical stability upon exposure to AAC [2]: physically stable

Molecule: CCS(=O)(=O)O.NC(=NC(=O)c1nc(Cl)c(N)nc1N)NCc1ccccc1 [ESY3]
Crystallinity [1]: Poor | Physical Stability [2]: Unstable

Molecule: Br.NC(=NC(=O)c1nc(Cl)c(N)nc1N)NCc1ccccc1 [HBR6]
Crystallinity [1]: Good

Molecule: N=C(NCc1ccccc1)NC(=O)c1nc(Cl)c(N)nc1N.O=C(O)CC(=O)O [MAO4]
Crystallinity [1]: Good

Crystallinity [1]: Poor | Physical Stability [2]: Stable | physical stability upon exposure to AAC [2]: physically stable
Molecule: NC(=NCc1ccccc1)NC(=O)c1nc(Cl)c(N)nc1N.O=S(=O)(O)c1ccc2ccccc2c1 [NSA4]

Molecule: NC(=NC(=O)c1nc(Cl)c(N)nc1N)NCc1ccccc1.O=CO [FOR4]
Crystallinity [1]: Good

Molecule: NC(=NC(=O)c1nc(Cl)c(N)nc1N)NCc1ccccc1.O=S(=O)(O)CCS(=O)(=O)O [EDY2]
Crystallinity [1]: Good | Physical Stability [2]: Stable | physical stability upon exposure to AAC [2]: physically stable

Molecule: CS(=O)(=O)O.NC(=NC(=O)c1nc(Cl)c(N)nc1N)NCc1ccccc1 [MES3]
Crystallinity [1]: Moderate

Crystallinity [1]: Poor | Physical Stability [2]: Unstable
Molecule: PAM3

Molecule: CCCC(=O)O.NC(=NC(=O)c1nc(Cl)c(N)nc1N)NCc1ccccc1 [BUT2]
Crystallinity [1]: Poor | Physical Stability [2]: Unstable

Molecule: N=C(NCc1ccccc1)NC(=O)c1nc(Cl)c(N)nc1N.O=[N+]([O-])O [NIT1]
Physically stable after AAC [2]: physically unstable

Molecule: NC(=NC(=O)c1nc(Cl)c(N)nc1N)NCc1ccccc1.O=CO [FOR5]
Crystallinity [1]: Good

Molecule: NC(=NC(=O)c1nc(Cl)c(N)nc1N)NCc1ccccc1.O=C(O)CC(O)(CC(=O)O)C(=O)O [CIT2]
Crystallinity [1]: Good

Molecule: NC(=NC(=O)c1nc(Cl)c(N)nc1N)NCc1ccccc1.O=C(O)c1cc(O)ccc1O [GEN3]
Crystallinity [1]: Moderate | Physical Stability [2]: Unstable

Molecule: CCCCCCCCCCCCCCCCCC(=O)O.NC(=NC(=O)c1nc(Cl)c(N)nc1N)NCc1ccccc1 [STE2]
Crystallinity [1]: Poor | Physical Stability [2]: Stable | physical stability upon exposure to AAC [2]: physically stable

Molecule: CCCCCCCCCCCCCCCCCC(=O)O.NC(=NC(=O)c1nc(Cl)c(N)nc1N)NCc1ccccc1 [STE1]
Crystallinity [1]: Obtained as mixture | Physical Stability [2]: Stable | physical stability upon exposure to AAC [2]: physically stable

Molecule: Cl.Cl.N=C(NCc1ccccc1)NC(=O)c1nc(Cl)c(N)nc1N [Di-HCl1]
Physically stable after AAC [2]: physically unstable

Molecule: NC(=NC(=O)c1nc(Cl)c(N)nc1N)NCc1ccccc1.O=C(O)c1ccco1 [FUR3]
Crystallinity [1]: Good | Physical Stability [2]: Unstable

Molecule: Br.NC(=NC(=O)c1nc(Cl)c(N)nc1N)NCc1ccccc1 [HBR10]
Crystallinity [1]: Moderate | Physical Stability [2]: Unstable

Molecule: CCCCC(=O)O.NC(=NC(=O)c1nc(Cl)c(N)nc1N)NCc1ccccc1 [VAL2]
Crystallinity [1]: Poor

Molecule: N=C(NCc1ccccc1)NC(=O)c1nc(Cl)c(N)nc1N.O=P(O)(O)O [PHO1]
Physically stable after AAC [2]: physically unstable

Molecule: Cc1ccc(S(=O)(=O)O)cc1.N=C(NCc1ccccc1)NC(=O)c1nc(Cl)c(N)nc1N [TOS3]
Physically stable after AAC [2]: physically stable

Molecule: NC(=NC(=O)c1nc(Cl)c(N)nc1N)NCc1ccccc1.O=C(O)c1cc2ccccc2c(Cc2c(O)c(C(=O)O)cc3ccccc23)c1O [PAM4]
Crystallinity [1]: Poor

Molecule: NC(=NC(=O)c1nc(Cl)c(N)nc1N)NCc1ccccc1.O=S(=O)(O)O [SUL2]
Physically stable after AAC [2]: physically unstable

Molecule: CCC(=O)O.NC(=NC(=O)c1nc(Cl)c(N)nc1N)NCc1ccccc1 [PRO5]
Crystallinity [1]: Moderate

Molecule: NC(=NC(=O)c1nc(Cl)c(N)nc1N)NCc1ccccc1.O=C(O)c1ccco1 [FUR2]
Crystallinity [1]: Good

Molecule: NC(=NC(=O)c1nc(Cl)c(N)nc1N)NCc1ccccc1.O=C(O)c1ccccc1O [SAL2]
Crystallinity [1]: Poor

Molecule: Cc1ccc(S(=O)(=O)O)cc1.N=C(NCc1ccccc1)NC(=O)c1nc(Cl)c(N)nc1N [TOS2a]
Physically stable after AAC [2]: physically unstable

Molecule: CCS(=O)(=O)O.NC(=NC(=O)c1nc(Cl)c(N)nc1N)NCc1ccccc1 [ESY4]
Crystallinity [1]: Moderate

Molecule: NC(=NC(=O)c1nc(Cl)c(N)nc1N)NCc1ccccc1.O=[N+]([O-])O [NIT4]
Physically stable after AAC [2]: physically unstable

Molecule: NC(=NC(=O)c1nc(Cl)c(N)nc1N)NCc1ccccc1.O=S(=O)(O)CCS(=O)(=O)O [EDY5]
Crystallinity [1]: Moderate
